Converted amounts (≈) assume the structure as drawn. Starred links: 1 amine or outer side, 2 acyl side, 3 side chain; linkers in the order of their positions; H or OH if unused. Positions of bridges follow the written chain, without caps; N, C: chain ends. Non-standard residues stand in square brackets, D forms with d. Residues, ends and D or L forms follow the SMILES beside them. *: point of attachment. hTyr(3S-OH,4S-OH,3'-OSO3H) = N[C@H](C(=O)O)[C@H](O)[C@@H](O)c1ccc(O)c(OS(=O)(=O)O)c1; pTerphenylCO(4''-OnC5H11) = CCCCCOc1ccc(-c2ccc(-c3ccc(C(=O)*)cc3)cc2)cc1; Orn(4R-OH,5R-OH) = O=C([C@H](C[C@@H](O)[C@@H](O)N[*:3])N[*:1])[*:2]; hTyr(3S-OH,4S-OH) = N[C@H](C(=O)O)[C@H](O)[C@@H](O)c1ccc(O)cc1; Pro(3S-OH,4S-Me) = C[C@H]1CN[C@H](C(=O)O)[C@H]1O; X1 = CCCCCOc1ccc(-c2cc(-c3ccc(C(=O)*)cc3)no2)cc1; Gln(3R-OH) = NC(=O)C[C@@H](O)[C@H](N)C(=O)O; Hyp = O=C(O)[C@@H]1C[C@@H](O)CN1
How the values were obtained:
Paecilomyces lilacinus = experiment: Antimicrobial activity against Paecilomyces lilacinus by microdilution method; format: functional; details: Purpureocillium lilacinum
Paecilomyces variotii = experiment: Antimicrobial activity against Paecilomyces variotii by microdilution method; format: functional

MIC (Paecilomyces lilacinus) [µg/mL] | MIC (Paecilomyces variotii) [µg/mL] | Compound
27.9 (≈ 25.5 µM) | 0.44 (≈ 0.402 µM) | CC[C@H](C)C[C@H](C)CCCCCCCCC(=O)N[C@H]1C[C@@H](O)[C@@H](NCCN)NC(=O)[C@@H]2[C@@H](O)CCN2C(=O)[C@H]([C@H](O)CCN)NC(=O)[C@H]([C@H](O)[C@@H](O)c2ccc(O)cc2)NC(=O)[C@@H]2C[C@@H](O)CN2C(=O)[C@H]([C@@H](C)O)NC1=O [CASPOFUNGIN]
0.51 (≈ 1.75 µM) | 1.53 (≈ 5.25 µM) | CN(C/C=C/C#CC(C)(C)C)Cc1cccc2ccccc12 [TERBINAFINE]
25.6 (≈ 20.2 µM) | 0.018 (≈ 0.0142 µM) | CCCCCOc1ccc(-c2cc(-c3ccc(C(=O)N[C@H]4C[C@@H](O)[C@@H](O)NC(=O)[C@@H]5[C@@H](O)[C@@H](C)CN5C(=O)[C@H]([C@H](O)CC(N)=O)NC(=O)[C@H]([C@H](O)[C@@H](O)c5ccc(O)c(OS(=O)(=O)O)c5)NC(=O)[C@@H]5C[C@@H](O)CN5C(=O)[C@H]([C@@H](C)O)NC4=O)cc3)no2)cc1 [MICAFUNGIN] (X1-[Orn(4R-OH,5R-OH)]T[Hyp][hTyr(3S-OH,4S-OH,3'-OSO3H)][Gln(3R-OH)][Pro(3S-OH,4S-Me)]; lactam 1-C)
0.73 (≈ 1.67 µM) | 4.89 (≈ 11.2 µM) | C[C@@H](c1nc(-c2ccc(C#N)cc2)cs1)[C@](O)(Cn1cncn1)c1ccc(F)cc1F [RAVUCONAZOLE]
29.6 (≈ 32 µM) | 0.04 (≈ 0.0433 µM) | C[C@@H]1[C@H](O)[C@@H](C)/C=C/C=C/C=C/C=C/C=C/C=C/C=C/[C@H](O[C@@H]2O[C@H](C)[C@@H](O)[C@H](N)[C@@H]2O)C[C@@H]2O[C@](O)(C[C@@H](O)C[C@@H](O)[C@H](O)CC[C@@H](O)C[C@@H](O)CC(=O)O[C@H]1C)C[C@H](O)[C@H]2C(=O)O [AMPHOTERICIN B]
13.4 (≈ 19 µM) | 0.06 (≈ 0.085 µM) | CCC(C)n1ncn(-c2ccc(N3CCN(c4ccc(OCC5COC(Cn6cncn6)(c6ccc(Cl)cc6Cl)O5)cc4)CC3)cc2)c1=O (stereo not drawn) [ITRACONAZOLE]

Compound | MIC (Paecilomyces lilacinus) [µg/mL] | MIC (Paecilomyces variotii) [µg/mL]
CCCCCOc1ccc(-c2ccc(-c3ccc(C(=O)N[C@H]4C[C@@H](O)[C@@H](O)NC(=O)[C@@H]5[C@@H](O)[C@@H](C)CN5C(=O)[C@H]([C@@H](C)O)NC(=O)[C@H]([C@H](O)[C@@H](O)c5ccc(O)cc5)NC(=O)[C@@H]5C[C@@H](O)CN5C(=O)[C@H]([C@@H](C)O)NC4=O)cc3)cc2)cc1 [ANIDULAFUNGIN] ({pTerphenylCO(4''-OnC5H11)}-[Orn(4R-OH,5R-OH)]T[Hyp][hTyr(3S-OH,4S-OH)]T[Pro(3S-OH,4S-Me)]; lactam 1-C) | 27.1 (≈ 23.8 µM) | 0.016 (≈ 0.014 µM)
C[C@@H](c1ncncc1F)[C@](O)(Cn1cncn1)c1ccc(F)cc1F [VORICONAZOLE] | 0.45 (≈ 1.29 µM) | 4.18 (≈ 12 µM)
CC[C@@H]([C@H](C)O)n1ncn(-c2ccc(N3CCN(c4ccc(OC[C@@H]5CO[C@@](Cn6cncn6)(c6ccc(F)cc6F)C5)cc4)CC3)cc2)c1=O [POSACONAZOLE] | 0.28 (≈ 0.4 µM) | 0.04 (≈ 0.0571 µM)
